{
  "source": "patent US5534542A",
  "about": "“Methods and materials relating to a bi-metallic cross-linking species” (priority 1994, dated 1996)",
  "key": {"[1]": {"system": "radiolabelled DNA fragment", "experiment": "DNA-binding assay: electrophoretic mobility shift of a radiolabelled DNA fragment on polyacrylamide gel", "conditions": "for DNA mobility shift with increasing concentrations: polyacrylamide gel electrophoresis of radiolabelled DNA fragment", "description": "The assay used to determine the DNA-binding activity of the complexes is based on the assays developed by Lippard and coworkers for assaying the extent of DNA binding by cis-DDP, in which the electrophoretic mobility of a DNA molecule is altered by binding of the drug (Sundquist, 1990). Charge neutralization and DNA bending caused by binding of the divalent metal complex have been invoked to explain the observed mobility shift."}, "Fur": {"target": "T1, Fur (Escherichia coli, UniProt P0A9A9)", "T1 construct": "made in house", "T1 sequence (P0A9A9 2-148)": "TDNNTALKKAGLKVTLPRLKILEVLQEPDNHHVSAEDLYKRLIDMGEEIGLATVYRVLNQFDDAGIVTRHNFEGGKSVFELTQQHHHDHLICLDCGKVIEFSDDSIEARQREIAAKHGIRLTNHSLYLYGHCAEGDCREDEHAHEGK", "experiment": "In vitro DNA-protein crosslinking assay (gel mobility shift), Fur", "format": "biochemical", "conditions": "Fur and DNA fragment bearing its recognition sequence", "description": "(§1) (Pried & Crothers, 1981; Garner & Revsin, 1981).\n(§2) Proteins and DNA Probes. TFIIIA from Xenopus Borealis was provided by T. Tullius (Johns Hopkins University) and A. Wolffe (NIH). Fur was purified based on the method of Neilands and coworkers. MerR extract was obtained and quantified as described (O'Halloran, 1989). DNA probes used in TFIIIA, Fur, and MerR gel mobility shift assays were derived from plasmids pXBS201 (obtained from T. Tullius), pGMer and pBIB, respectively. The 249-bp BamHI-HindIII fragment from pXBS201, 309-bp XhoI-PvuII fragment from pBIB and 411-bp BssHII-BssHII fragment from pGMer are labeled with [α-^32 P]dNTPs (Amersham) by the Klenow fragment of DNA polymerase (Bethesda Research Laboratories). The labeled fragments are then isolated and purified by gel electrophoresis. DNA concentrations were determined by optical density at 260 nm by using a molar extinction coefficient of 1.3×10^4 per nucleotide pair.\n(§3) Crosslinking Activity Assay. DNA-protein-crosslinker are incubated in 20 μl (final volume) of binding buffer. The buffer for TFIIIA and MerR extract reaction is 20 mM Hepes [pH 7.5], 50 mM K2 SO4, 10 μMZnsO4, 3 mM MgCl2, 10% glycerol and 70 μg/ml Albumin, Bovine-carboxymethyl [c-BSA] (Sigma). The Fur incubation buffer is 20 mM Bis-Tris/Borate [pH 7.0], 50 mM K2 SO4, 5% glycerol, 1 mM MgCl2, 5 μG/ml salmon sperm DNA and 100 μg/ml c-BSA. […]"}, "TFIIIA": {"target": "T2, TFIIIA (Xenopus borealis, UniProt P17842)", "T2 sequence (P17842 1-339)": "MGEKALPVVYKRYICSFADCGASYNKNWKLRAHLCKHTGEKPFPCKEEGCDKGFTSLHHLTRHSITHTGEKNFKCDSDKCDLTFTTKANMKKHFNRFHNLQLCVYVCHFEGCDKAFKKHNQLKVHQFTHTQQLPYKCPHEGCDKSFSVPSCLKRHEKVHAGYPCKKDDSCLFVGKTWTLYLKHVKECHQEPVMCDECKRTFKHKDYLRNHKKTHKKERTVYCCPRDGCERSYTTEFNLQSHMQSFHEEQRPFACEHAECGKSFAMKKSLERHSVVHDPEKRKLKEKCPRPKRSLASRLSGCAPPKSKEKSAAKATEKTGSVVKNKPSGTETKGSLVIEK", "experiment": "In vitro DNA-protein crosslinking assay (gel mobility shift), TFIIIA", "format": "biochemical", "conditions": "zinc finger transcription factor TFIIIA and DNA fragment bearing its recognition sequence", "description": "as §1, §2, §3"}, "MerR protein": {"target": "T3, MerR protein (Pseudomonas aeruginosa, UniProt P0A183)", "T3 construct": "made in house", "T3 sequence (P0A183 whole entry, the tested form may be a part)": "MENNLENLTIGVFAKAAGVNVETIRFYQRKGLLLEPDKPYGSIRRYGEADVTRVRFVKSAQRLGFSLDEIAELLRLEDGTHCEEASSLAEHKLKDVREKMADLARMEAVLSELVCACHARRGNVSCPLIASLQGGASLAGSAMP", "experiment": "In vitro DNA-protein crosslinking assay (gel mobility shift), MerR", "format": "biochemical", "conditions": "MerR and DNA fragment bearing its recognition sequence", "protocol": "FIGS. 8-11: In vitro assay for crosslinking of proteins to DNA by 5-Chloromercuri-1,2-pentanediamine)dichloro platinum(II). Lane 1:4.5 pM DNA, 500 cpm Lane 2: DNA+460 pM MerR dimer Lane 3: DNA+protein+2.4 nM unlabeled competitor DNA Lane 4: DNA+protein+25 mM KCN Lane 5:DNA-protein complex treated with 10 mM 1 prior to competition. Lane 6: DNA-protein complex treated with 2 mM 1 prior to competition. Lane 7: DNA-protein complex treated with 0.4 mM crosslinker prior to competition Lanes 8-10: Reactions as for lane 5-7, pretreated with 25 mM KCN prior to competition. (Grant)\nas §1\nProteins and DNA Probes. TFIIIA from Xenopus Borealis was provided by T. Tullius (Johns Hopkins University) and A. Wolffe (NIH). Fur was purified based on the method of Neilands and coworkers. MerR extract was obtained and quantified as described (O'Halloran, 1989). DNA probes used in TFIIIA, Fur, and MerR gel mobility shift assays were derived from plasmids pXBS201 (obtained from T. Tullius), pGMer and pBIB, respectively. […] DNA concentrations were determined by optical density at 260 nm by using a molar extinction coefficient of 1.3×10^4 per nucleotide pair. […]"}, "[2]": {"conditions": "cited from earlier work"}, "[3]": {"experiment": "Kinetics of the reaction of the complex with DMSO (UV spectroscopy)", "format": "physicochemical", "conditions": "room temperature; in accord with published rate data for cis-Pt(NH3)2Cl2", "protocol": "^1 H, ^13 C, ^195 Pt and ^199 Hg NMR spectra were recorded on a Varian VXR-400 Fourier Transform spectrometer, operating at 399.95 MHZ (^1 H), […] (^13 C), 85.736 MHz (^195 Pt), and 71.600 MHz (^199 Hg). Standard acquisition parameter files were used for the accumulation of ^1 H and ^13 C spectra. For ^195 Pt NMR, a spectral window of 50 KHz was used, with a pulse width of 30 μsec, and a pulse delay of 100 μsec. Broadband proton decoupling was employed during acquisition of the spectra. ^195 Pt spectra were referenced externally using a 0.1M aqueous solution of K2 PtCl4 in 0.1M KCl. Chemical shifts are reported relative to K2 PtCl6 =0 ppm. (δK2 PtCl4 =[…]). Proton-decoupled ^199 Hg NMR spectra were recorded using a spectral window of 30 KHz, a pulse width of 30 μsec, and a pulse delay of 100 μsec. Chemical shifts are reported relative to external Hg(CH3)2 (0 ppm). Mass spectra were recorded using a VG instruments VG70-250 S/SE instrument. Infrared spectra were recorded using either a Perkin-Elmer PE-283 or a Mattson Alpha Centauri FTIR spectrometer. UV spectra were obtained using a Hewlett-Packard HP8452 spectrophotometer running off of an IBM-AT personal computer. Kinetic measurements were controlled using the Hewlett-Packard Multicell Kinetics Module. Data manipulation and plotting was performed using the program Igor^24 running on a Macintosh IIx personal computer. […]"}, "Stability at low pH": {"experiment": "Stability at low pH", "format": "physicochemical"}, "[4]": {"experiment": "Solubility of the cross-linker complex in solvents", "format": "physicochemical", "description": "The cross-linker species of the present invention has been characterized by a combination of analytical and spectroscopic techniques. […] The complex is quite soluble in DMSO, although a warning has been issued concerning the compositions of DMSO solutions of cisplatin derivatives (Sundquist, 1987). The proton NMR spectrum of the complex in d7-DMF is poorly resolved, and the resonances due to the residual protons in the deuterated solvent tend to obscure parts of the spectrum of the complex.\nThis appears to be an effect of particle size on dissolution rate, since no differences can be discerned in the infrared spectra of the complex before or after this treatment. In particular there is no evidence for coordinated DMSO in the region 1000-1200 cm-^1."}},
  "note": "Entries after “also recorded” stand apart in the source; their conditions may differ.",
  "data": [
    {"compound": "[CH3][Hg][Cl]", "note": "[MeHgCl]", "values": [
      {"measurement": "DNA mobility shift with increasing concentrations", "setting": "[1]", "result": "does not exhibit a mobility shift at all"}
    ]},
    {"compound": "NCCN.[Cl][Pt][Cl]", "note": "[PtenCl2]", "values": [
      {"measurement": "DNA mobility shift with increasing concentrations", "setting": "[1]", "result": "saturation binding curve"}
    ]},
    {"compound": "N.N.[Cl][Pt][Cl]", "note": "[cisplatin, cis-dicholorodiammineplatinum(II), reference compound]", "values": [
      {"measurement": "induction of DNA-protein cross-links, Fur", "setting": "Fur", "result": "only the latter reagent can efficiently induce DNA-protein cross-links"},
      {"measurement": "binding to DNA", "setting": "[1]", "result": "bind avidly to DNA"},
      {"measurement": "induction of DNA-protein cross-links, TFIIIA", "setting": "TFIIIA", "result": "only the latter reagent can efficiently induce DNA-protein cross-links"},
      {"measurement": "induction of DNA-protein cross-links, MerR", "setting": "MerR protein", "result": "only the latter reagent can efficiently induce DNA-protein cross-links"}
    ]},
    {"compound": "NCC1(CN)CCOCC1.O=C([O-])C1(C(=O)[O-])CCC1.[Pt+2]", "note": "[enloplatin]", "values": [
      {"measurement": "toxicity in phase I trials", "setting": "[2]", "result": "caused nephrotoxicity"}
    ]},
    {"compound": "5-Chloromercuri-1,2-pentanediamine)dichloro platinum(II) [Merplatin]", "values": [
      {"measurement": "induction of DNA-protein cross-links, Fur", "setting": "Fur", "result": "can efficiently induce DNA-protein cross-links"},
      {"measurement": "binding to DNA", "setting": "[1]", "result": "bind avidly to DNA"},
      {"measurement": "DNA mobility shift with increasing concentrations", "setting": "[1]", "result": "saturation binding curve which is identical in form with a curve obtained by incubation of DNA with PtenCl2"},
      {"measurement": "half-life of reaction with DMSO", "setting": "[3]", "result": "approximately 3 hours"},
      {"measurement": "induction of DNA-protein cross-links, TFIIIA", "setting": "TFIIIA", "result": "can efficiently induce DNA-protein cross-links"},
      {"measurement": "stability at low pH", "setting": "Stability at low pH", "result": "stable at low pH"},
      {"measurement": "solubility in DMSO", "setting": "[4]; DMSO", "result": "quite soluble"},
      {"measurement": "solubility in NMP after reprecipitation", "setting": "[4]; NMP, after dissolution in DMSO and immediate precipitation with ethanol", "result": "readily soluble"},
      {"measurement": "solubility in amide solvents", "setting": "[4]; dimethylformamide or 1-methylpyrrolidinone (NMP), complex as prepared in Example 1", "result": "limited solubility; also recorded: dissolves sparingly"},
      {"measurement": "concentration of solutions that can be prepared in amide solvents", "setting": "[4]; dimethylformamide or NMP, complex as prepared in Example 1", "result": "~ 10 mM"},
      {"measurement": "solubility in water and most organic solvents", "setting": "[4]; water and most organic solvents, listed as complex", "result": "limited solubility; also recorded: low solubility"},
      {"measurement": "induction of DNA-protein cross-links, MerR", "setting": "MerR protein", "result": "can efficiently induce DNA-protein cross-links"}
    ]},
    {"compound": "O=C([O-])C1(C(=O)[O-])CCC1.[NH-]CC(C[NH-])(CO)CO.[Pt+4]", "note": "[zeniplatin]", "values": [
      {"measurement": "toxicity in phase I trials", "setting": "[2]", "result": "caused nephrotoxicity"}
    ]}
  ]
}
